Results published in patent US8207175B2, “Inhibitor compounds” (University Court of the University of Dundee, priority 2005, dated 2012).
Read-outs that look alike come from different tables or passages of the source. Values belong to the compound of their own block, whether it stands above or below them.

Experiments:
AfChiB1 [1] = target: T1, AfChiB1 (Aspergillus fumigatus, UniProt Q873X9); assay: biochemical; type: biochemical
Description: AfChiB1 was expressed, purified and inhibition studies performed as previously described [F. V. Rao, D. R. Houston, R. G. Boot, J. M. F. G. Aerts, M. Hodkinson, D. J. Adams, K. Shiomi, S. Omura, and D. M. F. van Aalten, Specificity and affinity of natural product cyclopentapeptide inhibitors against Aspergillus fumigatus, human and bacterial chitinases, Chemistry & Biology, 12, 65-76 (2005)].
Briefly, AfChiB1 was overexpressed as a GST-fusion protein in E. coli and purified using a combination of affinity and size-exclusion chromatography.
AfChiB1 inhibition was studied using the fluorogenic substrate 4-methylumbelliferyl-β-D-N,N′-diacetylchitobiose (4MU-GlcNAc2; Sigima). Briefly, in a final volume of 50 μl, 2 nM of enzyme was incubated with 20 μM substrate in McIlvain buffer (100 mM citric acid, 200 mM sodium phosphate, pH 5.5) containing 0.1 mg/ml BSA, for 10 min at 37° C. in the presence of different concentration of inhibitors. After the addition of 25 μl of 3 M glycine-NaOH, pH 10.3, the fluorescence of the liberated 4-methylumbelliferone (4MU) was quantified using a Flx 800 microtitrepiate fluorescence reader (Bio-Tek Instruments Inc.), with excitation and emission wavelengths of 360 nm and 460 nm, respectively, using 40 nm slits. Experiments were performed in triplicate. […]
The mode of action was determined by plotting the data as Lineweaver-Burk plots, and by fitting all data to the standard competitive inhibition equation with the GraFit software [R. J. Leatherbarrow, GraFit Version 5, Erithacus Software Ltd., Horley, U.K., (2001)].
The compounds according to an embodiment of the present invention were prepared according to the following methods, and further evaluated as inhibitors against AfChiB using the fluorescence-based assay described herein using 4methylumbelliferyl β-D-N,N-deacetyl-chitobioside as substrate. The assay results are shown in the accompanying tables 3-6.

[2] = target: cellulase from Aspergillus niger; assay: Cellulase assay, 4-methylumbelliferyl-β-D-cellobioside; type: biochemical; details: 5 nM enzyme, 20 μM substrate, 30 min at 37° C.
Experimental: (§1) Additionally, for comparison, inhibition studies were performed on celluase from Aspergillus niger, phosphodiesterase 4A and lysozyme.
Commercially available […] from Aspergillus niger (Sigma: C-1184) was assayed, using the fluorogenic substrate 4-methylumbelliferyl-β-D-cellobioside (Sigma M-6018). In a final volume of 50 μl, 5 nM of enzyme was incubated with 20 μM substrate in McIlvain buffer containing 0.1 mg/ml BSA, for 30 min at 37° C. in the presence of different concentration of inhibitors. After the addition of 25 μl of 3 M glycine-NaOH, pH 10.3, the fluorescence of the liberated 4-methylumbelliferone (4MU) was quantified using an Flx 800 microtitreplate fluorescence reader (Bio-Tek Instruments Inc.), with excitation and emission wavelengths of 360 nm and […], respectively, using 40 nm slits. Experiments were performed in triplicate. Production of 4MU was linear with time for the incubation period used, and less than 10% of available substrate was hydrolyzed.

[3] = target: T2, Chicken egg white lysozyme (Gallus gallus, UniProt P00698); assay: Lysozyme assay, EnzCheck Lysozyme kit; type: biochemical; details: 500 μM inhibitor
T2 construct: Chicken egg white lysozyme and its substrate; purchased Molecular probes EnzCheck Lysozyme kit; host or cells: chicken egg white
T2 sequence (P00698 19-147): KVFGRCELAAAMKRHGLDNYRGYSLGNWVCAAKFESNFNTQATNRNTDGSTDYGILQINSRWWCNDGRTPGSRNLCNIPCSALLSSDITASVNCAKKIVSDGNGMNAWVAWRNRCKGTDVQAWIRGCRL
Experimental: as §1
Lysozyme was assayed using the EnzCheck Lysozyme kit from Molecular probes as described by the manufacturer. Chicken egg white lysozyme and its substrate, fluorescein labeled Micrococcus lysodeikyius cell wall (DQ Lysozyme substrate) were used to determine compound inhibition. Briefly, 6.25 units of lysozyme were incubated with 25 μg of DQ substrate with or without various concentrations of inhibitor in a total volume of 100 μl at 37° C. for 30 minutes. The fluorescence was determined using excitation and emission wavelengths of 360 nm and 460 nm, respectively. The potency of inhibitors (IC50) was determined from a dose-response curve. Experiments were performed in triplicate.

H.AMCase (human AMCase) = H.AMCase (human AMCase) (Homo sapiens, UniProt Q9BZP6); assay: Further inhibition studies, human AMCase (Table 2); type: biochemical
Sequence of H.AMCase (human AMCase) (Q9BZP6 22-476): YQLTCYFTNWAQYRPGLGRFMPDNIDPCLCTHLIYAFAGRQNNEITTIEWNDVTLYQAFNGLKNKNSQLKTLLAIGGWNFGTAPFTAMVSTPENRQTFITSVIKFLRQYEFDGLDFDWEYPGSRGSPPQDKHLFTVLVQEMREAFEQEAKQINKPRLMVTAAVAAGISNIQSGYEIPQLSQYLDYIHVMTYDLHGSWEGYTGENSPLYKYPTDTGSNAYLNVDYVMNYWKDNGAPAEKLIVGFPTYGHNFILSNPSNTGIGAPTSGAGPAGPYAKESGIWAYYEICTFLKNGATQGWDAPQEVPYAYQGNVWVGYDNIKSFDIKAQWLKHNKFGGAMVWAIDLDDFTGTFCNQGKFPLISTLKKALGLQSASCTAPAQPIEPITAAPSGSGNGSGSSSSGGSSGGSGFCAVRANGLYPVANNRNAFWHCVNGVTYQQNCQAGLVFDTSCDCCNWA
Description: (§2) Inhibition Studies on Human and Mouse AMCase and Chitotriosidase

M.AMCase (mouse AMCase) = M.AMCase (mouse AMCase) (Mus musculus, UniProt Q91XA9); assay: Further inhibition studies, mouse AMCase (Table 2); type: biochemical
Sequence of M.AMCase (mouse AMCase) (Q91XA9 22-473): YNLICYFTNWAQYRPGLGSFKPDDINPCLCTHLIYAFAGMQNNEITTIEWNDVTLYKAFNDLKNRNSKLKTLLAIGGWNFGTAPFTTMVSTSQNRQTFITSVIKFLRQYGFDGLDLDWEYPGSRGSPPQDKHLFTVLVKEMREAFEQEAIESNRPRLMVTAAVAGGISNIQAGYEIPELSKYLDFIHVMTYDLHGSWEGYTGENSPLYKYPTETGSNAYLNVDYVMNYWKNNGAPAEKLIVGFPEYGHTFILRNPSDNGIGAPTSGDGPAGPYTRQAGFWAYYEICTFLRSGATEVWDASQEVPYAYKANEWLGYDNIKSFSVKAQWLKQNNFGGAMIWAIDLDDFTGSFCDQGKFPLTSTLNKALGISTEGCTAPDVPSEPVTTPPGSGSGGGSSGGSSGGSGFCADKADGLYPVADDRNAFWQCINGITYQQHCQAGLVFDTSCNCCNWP
Description: as §2

[4] = target: M.Chito (mouse chitotriosidase) (Mus musculus, UniProt Q9D7Q1); assay: Further inhibition studies, mouse chitotriosidase (Table 2); type: biochemical
Sequence of M.Chito (mouse chitotriosidase) (Q9D7Q1 22-464): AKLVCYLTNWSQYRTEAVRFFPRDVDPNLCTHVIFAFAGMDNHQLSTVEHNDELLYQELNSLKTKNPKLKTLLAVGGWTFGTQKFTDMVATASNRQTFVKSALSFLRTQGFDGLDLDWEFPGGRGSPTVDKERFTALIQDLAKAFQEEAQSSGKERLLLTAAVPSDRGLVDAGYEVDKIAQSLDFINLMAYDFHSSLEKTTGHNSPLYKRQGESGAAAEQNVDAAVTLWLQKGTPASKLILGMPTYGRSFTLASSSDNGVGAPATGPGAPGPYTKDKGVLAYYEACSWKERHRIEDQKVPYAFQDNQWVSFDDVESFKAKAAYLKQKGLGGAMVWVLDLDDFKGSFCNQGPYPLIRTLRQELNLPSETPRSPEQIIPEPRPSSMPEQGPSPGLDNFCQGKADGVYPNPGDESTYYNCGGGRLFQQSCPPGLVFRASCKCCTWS
Description: as §2

AfChiB1 [5] = target: T1, AfChiB1; assay: AfChiB1 binding (Kd)
human chitotriosidase = target: T3, human chitotriosidase (Homo sapiens, UniProt Q13231); assay: Human chitotriosidase inhibition, 4MU-GlcNAc2 chitinase assay; type: biochemical; details: 22 μM substrate, 1 nM enzyme, 30° C. for 30 minutes; read-out: hCHT IC50
T3 construct: made in house; host or cells: HEK 293 (transient transfection, supernatant)
T3 sequence (Q13231 22-466): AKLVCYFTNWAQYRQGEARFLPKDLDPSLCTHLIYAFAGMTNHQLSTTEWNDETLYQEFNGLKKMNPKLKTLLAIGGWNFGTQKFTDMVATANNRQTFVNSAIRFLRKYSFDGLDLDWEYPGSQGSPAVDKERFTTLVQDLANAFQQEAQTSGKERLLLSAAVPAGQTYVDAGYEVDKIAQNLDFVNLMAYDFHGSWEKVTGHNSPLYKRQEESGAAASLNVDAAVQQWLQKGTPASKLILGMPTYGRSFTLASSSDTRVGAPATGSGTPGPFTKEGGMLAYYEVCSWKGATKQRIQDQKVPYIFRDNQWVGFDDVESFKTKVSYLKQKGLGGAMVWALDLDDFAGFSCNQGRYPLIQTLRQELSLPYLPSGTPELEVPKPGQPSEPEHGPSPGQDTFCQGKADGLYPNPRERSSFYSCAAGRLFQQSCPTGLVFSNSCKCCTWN

human AMCase = target: T4, human AMCase (Homo sapiens, UniProt Q9BZP6); assay: Human AMCase inhibition, 4MU-GlcNAc2 chitinase assay; type: biochemical; details: 1 mM inhibitor
T4 construct: made in house; host or cells: HEK 293 (transient transfection, supernatant)
T4 sequence (Q9BZP6 22-476): as the sequence (Q9BZP6 22-476) above

[6] = target: H.Chito (human chitotriosidase) (Homo sapiens, UniProt Q13231); assay: Further inhibition studies, human chitotriosidase (Table 2); type: biochemical
Sequence of H.Chito (human chitotriosidase) (Q13231 22-466): as the sequence (Q13231 22-466) above
Description: as §2

[7] = target: Phosphodiesterase 4A (PDE4A) (Homo sapiens, UniProt P27815); details: PDE-SPA assay, result in words
Sequence of Phosphodiesterase 4A (PDE4A) (P27815 whole entry): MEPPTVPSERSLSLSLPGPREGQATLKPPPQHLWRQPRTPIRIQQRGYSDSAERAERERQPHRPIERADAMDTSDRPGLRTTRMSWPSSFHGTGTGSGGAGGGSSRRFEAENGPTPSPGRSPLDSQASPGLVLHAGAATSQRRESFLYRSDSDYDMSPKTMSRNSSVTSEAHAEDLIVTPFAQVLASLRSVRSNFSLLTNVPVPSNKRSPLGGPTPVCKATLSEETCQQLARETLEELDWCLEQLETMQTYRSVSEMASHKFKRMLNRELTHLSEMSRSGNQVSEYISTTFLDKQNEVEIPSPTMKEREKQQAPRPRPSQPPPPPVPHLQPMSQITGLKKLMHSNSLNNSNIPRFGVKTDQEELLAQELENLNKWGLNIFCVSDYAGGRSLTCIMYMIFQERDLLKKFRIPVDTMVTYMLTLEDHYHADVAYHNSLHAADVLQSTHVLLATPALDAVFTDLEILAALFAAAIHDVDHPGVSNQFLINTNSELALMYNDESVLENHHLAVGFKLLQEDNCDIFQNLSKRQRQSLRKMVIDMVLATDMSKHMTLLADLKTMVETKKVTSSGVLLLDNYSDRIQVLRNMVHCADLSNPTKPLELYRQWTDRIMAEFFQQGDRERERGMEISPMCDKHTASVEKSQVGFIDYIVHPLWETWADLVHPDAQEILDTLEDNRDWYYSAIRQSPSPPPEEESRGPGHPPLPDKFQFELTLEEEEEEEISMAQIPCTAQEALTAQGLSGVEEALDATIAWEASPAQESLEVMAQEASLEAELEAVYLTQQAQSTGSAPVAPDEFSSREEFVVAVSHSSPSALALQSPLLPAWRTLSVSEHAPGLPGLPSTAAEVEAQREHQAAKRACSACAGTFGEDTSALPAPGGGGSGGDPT

[8] = Table 6, N7 compounds, against AfChiB, read-out: IC50
[9] = Table 5, N3 compounds, against AfChiB, read-out: IC50
[10] = 2 nM enzyme, 20 μM substrate, pH 5.5, 10 min at 37° C., read-out: AfChiB1 IC50
[11] = Trio substrate, pH 5.2, read-out: H.Chito Trio pH 5.2 (IC50)
[12] = human AMCase, Bio substrate, pH 4.5, read-out: H.AMCase Bio pH 4.5 (IC50)
[13] = mouse AMCase, Bio substrate, pH 4.5, read-out: M.AMCase Bio pH 4.5 (IC50)
[14] = mouse chitotriosidase, Bio substrate, pH 5.2, read-out: M.Chito Bio pH 5.2 (IC50)

- IC50 (AfChiB1 [1]; [8]): 0.16 µM
Compound: COC(=O)C=CCn1cnc2c1c(=O)n(CCCn1c(=O)c3c(ncn3C)n(C)c1=O)c(=O)n2C [Compound 24]

- IC50 (AfChiB1 [1]; [9]): 0.44 µM
Compound: Cn1cnc2c1c(=O)n(CCCn1c(=O)c3c(ncn3C)n(CCCO)c1=O)c(=O)n2C [Compound 16]

- IC50 (AfChiB1 [1]; [9]): 0.18 µM
Compound: Cn1cnc2c1c(=O)n(CCCn1c(=O)c3c(ncn3C)n(CCO)c1=O)c(=O)n2C [Compound 14]

Compound: Cn1cnc2c1c(=O)n(CCCn1c(=O)c3c(ncn3C)n(C)c1=O)c(=O)n2C [Compound 2]
- IC50 (AfChiB1 [1]): 0.23 µM

- IC50 (AfChiB1 [1]; [9]): 0.52 µM
Compound: CC(C)n1c(=O)n(CCCn2c(=O)c3c(ncn3C)n(C)c2=O)c(=O)c2c1ncn2C [Compound 12]

- IC50 (AfChiB1 [1]; [8]): 0.2 µM
Compound: Cn1cnc2c1c(=O)n(CCCn1c(=O)c3c(ncn3CCCC(=O)O)n(C)c1=O)c(=O)n2C [Compound 21]

Compound: Cn1c(=O)c2[nH]cnc2n(C)c1=O [theophylline]
- IC50 (AfChiB1 [1]; [10]): 1500 µM
- IC50 [2]: 1010 ± 159 µM
- Egg white lysozyme activity at 500 μM [3]: 100%
- IC50 (H.AMCase (human AMCase)): ~2000 µM
- IC50 (M.AMCase (mouse AMCase)): ~1600 µM
- IC50 [4]: > 2000 µM

- IC50 (AfChiB1 [1]; [8]): 0.3 µM
Compound: COC(=O)CCCCn1cnc2c1c(=O)n(CCCn1c(=O)c3c(ncn3C)n(C)c1=O)c(=O)n2C [Compound 22]

Compound: CC(=O)CCCCn1c(=O)c2c(ncn2C)n(C)c1=O [pentoxifylline]
- IC50 (AfChiB1 [1]; [10]): 126 µM
- Ki (AfChiB1 [1]; competitive inhibitor, 5-30 μM substrate, fit to competitive inhibition equation): 37 µM
- Kd (AfChiB1 [5]): 43 ± 10 µM
- IC50 (human chitotriosidase): 98 µM
- hAMCase activity at 1 mM (human AMCase): 49%
- IC50 [2]: 881 ± 319 µM
- Egg white lysozyme activity at 500 μM [3]: 100%
- IC50 [6, 11]: 400 µM
- IC50 (H.AMCase (human AMCase); [12]): 400 µM
- IC50 (M.AMCase (mouse AMCase); [13]): 400 µM
- IC50 [4, 14]: ~1000 µM
- inhibition of human phosphodiesterase-4 [7]: barely detectable

Compound: Cn1c(=O)c2c(ncn2C)n(C)c1=O [caffeine]
- IC50 (human chitotriosidase): 257 ± 8 µM
- hAMCase activity at 1 mM (human AMCase): 36%
- IC50 [2]: 1250 ± 278 µM
- Egg white lysozyme activity at 500 μM [3]: 100%
- IC50 ([6]; H.Chito Bio pH 5.2 (IC50), Bio substrate): 650 µM
- IC50 [6, 11]: 850 µM
- IC50 (H.AMCase (human AMCase); [12]): 500 µM
- IC50 (M.AMCase (mouse AMCase); [13]): 800 µM
- IC50 [4, 14]: > 1000 µM

- IC50 (AfChiB1 [1]; [9]): 0.14 µM
Compound: C=CCn1c(=O)n(CCCn2c(=O)c3c(ncn3C)n(C)c2=O)c(=O)c2c1ncn2C [Compound 11]

- IC50 (AfChiB1 [1]; [9]): 0.078 µM
Compound: Cn1cnc2c1c(=O)n(CCCn1c(=O)c3c(ncn3C)n(CCN)c1=O)c(=O)n2C [Compound 13]

- IC50 (AfChiB1 [1]; [9]): 0.31 µM
Compound: CCn1c(=O)n(CCCn2c(=O)c3c(ncn3C)n(C)c2=O)c(=O)c2c1ncn2C [Compound 10]

- IC50 (AfChiB1 [1]; [8]): 0.42 µM
Compound: Cn1cnc2c1c(=O)n(CCCn1c(=O)c3c(ncn3CC=CC(=O)O)n(C)c1=O)c(=O)n2C [Compound 25]

- IC50 (AfChiB1 [1]; [8]): 0.36 µM
Compound: Cn1cnc2c1c(=O)n(CCCn1c(=O)c3c(ncn3CCCCC(=O)O)n(C)c1=O)c(=O)n2C [Compound 23]

- IC50 (AfChiB1 [1]; [8]): 0.14 µM
Compound: COC(=O)CCCn1cnc2c1c(=O)n(CCCn1c(=O)c3c(ncn3C)n(C)c1=O)c(=O)n2C [Compound 20]

Compound: Cn1cnc2c1c(=O)n(CCn1c(=O)c3c(ncn3C)n(C)c1=O)c(=O)n2C [Compound 1]
- IC50 (AfChiB1 [1]): 6 µM

- IC50 (AfChiB1 [1]; [9]): 0.086 µM
Compound: Cn1cnc2[nH]c(=O)n(CCCn3c(=O)c4c(ncn4C)n(C)c3=O)c(=O)c21 [Compound 9]

- IC50 (AfChiB1 [1]; [9]): 0.44 µM
Compound: Cn1cnc2c1c(=O)n(CCCn1c(=O)c3c(ncn3C)n(CCCN)c1=O)c(=O)n2C [Compound 15]

- IC50 (AfChiB1 [1]; [8]): 0.2 µM
Compound: Cn1cnc2c1c(=O)n(CCCn1c(=O)c3nc[nH]c3n(C)c1=O)c(=O)n2C [Compound 17]

- IC50 (AfChiB1 [1]; [8]): 0.16 µM
Compound: Cn1cnc2c1c(=O)n(CCCn1c(=O)c3c(ncn3CCC(=O)O)n(C)c1=O)c(=O)n2C [Compound 19]

Compound: Cn1cnc2c1c(=O)n(CCCCn1c(=O)c3c(ncn3C)n(C)c1=O)c(=O)n2C [Compound 3]
- IC50 (AfChiB1 [1]): 6 µM
